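Briefly, cells in 96-well plates were exposed to five compound concentrations for 48 h, and endpoints were estimated by linear interpolation. GI50 is the concentration that inhibits growth by half.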 Active and inactive are the calls of the source. No stated cut-off is given here; in the data, active = GI50 up to about 1.1 µM and inactive = higher.
Assays:
Assay in all cases: NCI anticancer screen, dose series, 48 h
[1] = system: 786-0
[2] = system: COLO 205
[3] = system: HCC 2998
[4] = system: HCT-116
[5] = system: HOP-62
[6] = system: K562
[7] = system: LOX IMVI
[8] = system: MDA-N
[9] = system: NCI-H23
[10] = system: NCI-H460
[11] = system: OVCAR-3
[12] = system: RXF 393
[13] = system: SF-268
[14] = system: SF-295
[15] = system: SF-539
[16] = system: SK-MEL-28
[17] = system: SK-OV-3
[18] = system: SNB-19
[19] = system: SW-620
[20] = system: U-251

Measured: GI50

CC1(C)CCC2=C(O1)/C(=N\Nc1ccc(F)cc1)c1ccccc1C2=O
inactive: [1] 32.4 µM | [2] 35.1 µM | [3] 21.9 µM | [4] 31.3 µM | [5] 21.7 µM | [6] 49.5 µM | [7] 11.5 µM | [8] 17.7 µM | [9] 25.2 µM | [10] 23.9 µM | [11] 21 µM | [12] 35.2 µM | [13] 52.1 µM | [14] 20.7 µM | [15] 46.9 µM | [16] 26.2 µM | [17] 54.7 µM | [18] 35.6 µM | [19] 25.5 µM | [20] 31.5 µM

Cc1cc(NS(=O)(=O)c2ccc(NC(=O)c3cccc4c(NNc5ccc(S(=O)(=O)N=C(N)N)cc5)c5ccccc5nc34)cc2)no1
inactive: [1] > 100 µM | [2] 91.6 µM | [3] 30.5 µM | [4] 40.2 µM | [5] > 100 µM | [6] 36.8 µM | [7] 34.6 µM | [8] 68.5 µM | [9] 74.5 µM | [10] 51.9 µM | [11] 41.2 µM | [12] 46.8 µM | [13] 39 µM | [14] 69.7 µM | [15] 40.1 µM | [16] 33.9 µM | [17] 54.2 µM | [18] 45.6 µM | [19] 60 µM | [20] 22.6 µM

O=C1CN(/N=C/c2ccc(-c3ccc(F)cc3)o2)C(=O)N1
inactive: [1] > 100 µM | [2] 29.7 µM | [3] 80.9 µM | [4] 50.8 µM | [5] > 100 µM | [6] 35 µM | [7] 26.6 µM | [8] 16.9 µM | [9] 82.6 µM | [10] 45.2 µM | [11] > 100 µM | [12] > 100 µM | [13] > 100 µM | [14] 55.7 µM | [15] 34.4 µM | [16] 25.4 µM | [17] > 100 µM | [18] 83.9 µM | [19] 43 µM | [20] 89.3 µM

O=C(Nc1ccc(Cl)cc1)NS(=O)(=O)c1ccc2c(c1)CCC2 [SULOFENUR]
inactive: [1] 35.3 µM | [2] 29.8 µM | [3] 31.6 µM | [4] 26.2 µM | [5] 32.2 µM | [6] 10.2 µM | [7] 37.6 µM | [8] 28 µM | [9] 28.1 µM | [10] 24.4 µM | [11] 24.3 µM | [12] 27.9 µM | [13] 49.2 µM | [14] 46.7 µM | [15] 28.3 µM | [16] 43.9 µM | [17] 25.8 µM | [18] 40.9 µM | [19] 35.3 µM | [20] 30.7 µM

C=C1CC23CCC4C(C)(C(=O)O)CCCC4(C)C2CCC1C3 (stereo not given)
inactive: [1] 40.6 µM | [2] 19.7 µM | [3] 17.1 µM | [4] 32.7 µM | [5] > 100 µM | [6] 46.3 µM | [7] 30.7 µM | [8] 64 µM | [9] 41.9 µM | [10] 21 µM | [11] 30.4 µM | [12] 33.5 µM | [13] 63.1 µM | [14] 35.3 µM | [15] 74 µM | [16] > 100 µM | [17] 44.5 µM | [18] 53.1 µM | [19] 30.3 µM | [20] 48.1 µM

COC(=O)[C@]1(c2cc3ccccc3[nH]2)CC2CN(C(=O)OCc3ccccc3)C1CC2=O (stereo not given in full)
inactive: [1] 23.8 µM | [2] 16.5 µM | [3] 35 µM | [4] 22.8 µM | [5] 43.2 µM | [6] 18.7 µM | [7] 22.5 µM | [8] 24.8 µM | [9] 29.7 µM | [10] 24.4 µM | [11] 28.8 µM | [12] 16.2 µM | [13] 27.4 µM | [14] 25.4 µM | [15] 28.3 µM | [16] 39.3 µM | [17] 33.4 µM | [18] 59.7 µM | [19] 29.6 µM | [20] 15.8 µM

Cn1cc(NC(=O)c2cc(NC(=O)CNC(=N)N)cn2C)cc1C(=O)NCCC(=N)N [NETROPSIN CHLORIDE]
inactive: [1] > 100 µM | [2] > 100 µM | [3] > 100 µM | [4] > 100 µM | [5] > 100 µM | [6] > 100 µM | [7] > 100 µM | [8] > 100 µM | [9] > 100 µM | [10] > 100 µM | [11] > 100 µM | [12] > 100 µM | [13] > 100 µM | [14] > 100 µM | [15] > 100 µM | [16] > 100 µM | [17] > 100 µM | [18] > 100 µM | [19] > 100 µM | [20] > 100 µM

O=C(O)c1cc(-c2ccc3c(O)ccc(O)c3c2)ccc1O
inactive: [1] 16.6 µM | [2] 19.5 µM | [3] 16.4 µM | [4] 16.8 µM | [5] 34.1 µM | [6] 5.14 µM | [7] 11.5 µM | [8] 16.7 µM | [9] 25.8 µM | [10] 20.5 µM | [11] 20.9 µM | [12] 12.9 µM | [13] 29.1 µM | [14] 18.2 µM | [15] 16 µM | [16] 18.1 µM | [17] > 10 µM | [18] 40.9 µM | [19] 5.82 µM | [20] 21.4 µM

CN(C)CCNc1nc2ccccc2c2c1CCCC2
inactive: [1] 16.4 µM | [2] 22.9 µM | [3] 12.5 µM | [4] 14.8 µM | [5] 16.5 µM | [6] 20.3 µM | [7] 17.8 µM | [8] 16.1 µM | [9] 33.3 µM | [10] 16 µM | [11] 30.8 µM | [12] 8.65 µM | [13] 32.1 µM | [14] 15.9 µM | [15] 28.2 µM | [16] 17.7 µM | [17] 18.2 µM | [18] 29.9 µM | [19] 26.2 µM | [20] 17.3 µM

C=CC(OC(C)=O)c1ccc(OC(=O)C(C)C)c(OC)c1 (stereo not given)
inactive: [1] 1.99 µM | [2] 2.49 µM | [3] 11.2 µM | [4] 5.85 µM | [5] 10.2 µM | [6] 3.15 µM | [7] 1.95 µM | [8] 5.22 µM | [9] 9.4 µM | [10] 11.4 µM | [11] 5.81 µM | [12] 3.18 µM | [13] 7.8 µM | [14] 10.5 µM | [15] 9.4 µM | [16] 11.1 µM | [17] 16.6 µM | [18] 11.8 µM | [19] 2.6 µM | [20] 2.39 µM

CCOc1ccc(N/C(Cl)=C(Cl)\C(=C(\Nc2ccc(OCC)cc2)n2nnc3ccccc32)[N+](=O)[O-])cc1
inactive: [1] 4.02 µM | [2] 7.38 µM | [3] 13.2 µM | [4] 2.15 µM | [5] 33.1 µM | [6] 2.36 µM | [7] 1.65 µM | [8] 3.82 µM | [9] 6.38 µM | [10] 24.7 µM | [11] 4.12 µM | [12] 2.28 µM | [13] 6.98 µM | [14] 22.1 µM | [15] 4.2 µM | [16] 7.83 µM | [17] 66.5 µM | [18] 17.4 µM | [19] 2.32 µM | [20] 6.78 µM

COC1OC(COC(=O)NCCCCC(=O)C(F)(F)F)C(O)C(O)C1O (stereo not given)
inactive: [1] > 100 µM | [2] > 100 µM | [3] > 100 µM | [4] > 100 µM | [5] > 100 µM | [6] > 100 µM | [7] > 100 µM | [8] > 100 µM | [9] > 100 µM | [10] > 100 µM | [11] > 100 µM | [12] > 100 µM | [13] > 100 µM | [14] > 100 µM | [15] > 100 µM | [16] > 100 µM | [17] > 100 µM | [18] > 100 µM | [19] > 100 µM | [20] > 100 µM

Cc1occc1C(=S)Nc1ccc(Cl)c(/C=N/OC(C)(C)C)c1
inactive: [1] 18.7 µM | [2] 17.5 µM | [3] 16.6 µM | [4] 13.5 µM | [5] 19.9 µM | [6] 31.6 µM | [7] 13.1 µM | [8] 18.9 µM | [9] 15.3 µM | [10] 14.7 µM | [11] 15.6 µM | [12] 13.4 µM | [13] 22.6 µM | [14] 13.3 µM | [15] 31.2 µM | [16] 17.7 µM | [17] 23 µM | [18] 18.7 µM | [19] 18.5 µM | [20] 13.9 µM

CCc1ccc(CCC(=O)O)nc1
inactive: [1] > 100 µM | [2] > 100 µM | [3] > 100 µM | [4] > 100 µM | [5] > 100 µM | [6] > 100 µM | [7] > 100 µM | [8] > 100 µM | [9] > 100 µM | [10] > 100 µM | [11] > 100 µM | [12] > 100 µM | [13] > 100 µM | [14] > 100 µM | [15] > 100 µM | [16] > 100 µM | [17] > 100 µM | [18] > 100 µM | [19] > 100 µM | [20] > 100 µM
